Here are results for two molecules from patent US12186356B2, “Composition for preventing, alleviating, or treating allergic skin disease comprising as active ingredient extract of gardenia fruit from which pigment is removed” (KOREA INSTITUTE OF ORIENTAL MEDICINE, priority 2018, dated 2025).

Test [1] concerns NC/Nga mouse with induced allergic atopic dermatitis (house dust mite antigen). Kind of test: Number of itching in an animal model with allergic atopic dermatitis, extract orally administered. The note with it: oral 100 mg/kg or 200 mg/kg once a day for 14 days; itching counted for 20 minutes; p<0.05 to p<0.001; FIG. 6. Format: in vivo. Here is the method:
On the skin of a 8-week old NC/Nga mouse, 100 mg of an ointment (AD Biostir, Japan) which contains components originating from house dust mite as an antigen causing allergic atopy were applied, total 6 times for 21 days with an interval of 3 to 4 days to induce allergic atopic dermatitis. On a day of starting the test, 150μl of 4% SDS were applied to the animal, and, after allowing it to stand for 1 hour, 100 mg of the house dust mite antigen were applied to back and both ears of the animal, respectively. Seven days after inducing allergic atopic dermatitis, the animal was orally administered with 100 mg/kg or 200 mg/kg of the pharmaceutical (extract of gardenia fruit or extract of gardenia fruit from which pigment is removed), once a day for 14 days.
Thereafter, using the animal model with induced allergic dermatitis, number of itching in the ear and back of the animal for 20 minutes was examined once a week to compare the effects obtained according to administration of a pharmaceutical. All the measurement results are expressed in terms of mean and standard deviation (SD), and a difference among test groups was subjected to a statistical analysis using one-way ANOVA. Statistical significance was recognized when p is less than 0.05 (p<0.05).

The test system of test [2] is mast cells. Put plainly: Number of mast cells in ear and back skin tissues, toluidine blue staining. It counts as in vivo, NC/Nga mouse. To be noted: applied on skin, p<0.01 or p<0.001, FIG. 5. The procedure: (§1) On the skin of a 8-week old NC/Nga mouse, 100 mg of an ointment (AD Biostir, Japan) which contains components originating from house dust mite as an antigen causing allergic atopy were applied, total 6 times for 21 days with an interval of 3 to 4 days to induce allergic atopic dermatitis. Seven days after inducing allergic atopic dermatitis, the animal was applied with 1 mg/ml of the pharmaceutical (extract of gardenia fruit (GJE 1%), extract of gardenia fruit from which pigment is removed (GJE-CR 1%), or tacrolimus), once a day for 14 days. Skin tissues of the ear and back of a mouse with induced allergic dermatitis were collected and, by toluidine blue (TB) staining and use of an image measuring program (Solution FL ver 9.1), number of mast cells was determined. All the measurement results are expressed in terms of mean and standard deviation (SD), and a difference among test groups was subjected to a statistical analysis using one-way ANOVA. Statistical significance was recognized when p is less than 0.05 (p<0.05).

For test [3], the system named is NC/Nga mouse with induced allergic atopic dermatitis (house dust mite antigen). Kind of test: Skin state and number of scratching (itching) in an animal model with allergic atopic dermatitis, extract applied on skin. The note with it: applied on skin once a day for 14 days; itching counted for 20 minutes; p<0.001; FIG. 3. It counts as in vivo. The procedure:
On the skin of a 8-week old NC/Nga mouse, 100 mg of an ointment (AD Biostir, Japan) which contains components originating from house dust mite as an antigen causing allergic atopy were applied, total 6 times for 21 days with an interval of 3 to 4 days to induce allergic atopic dermatitis. Seven days after inducing allergic atopic dermatitis, the animal was applied with 1 mg/ml of the pharmaceutical (extract of gardenia fruit (GJE 1%), extract of gardenia fruit from which pigment is removed (GJE-CR 1%), or tacrolimus), once a day for 14 days. Thereafter, using the mouse with induced allergic dermatitis, number of itching for 20 minutes and level of skin damage on ear and back of the animal were examined once a week. All the measurement results are expressed in terms of mean and standard deviation (SD), and a difference among test groups was subjected to a statistical analysis using one-way ANOVA. Statistical significance was recognized when p is less than 0.05 (p<0.05).

Test [4] deals with inflammatory cells. Put plainly: Change in inflammatory cell infiltration in ear and back skin tissues, H&E staining. It counts as in vivo, NC/Nga mouse. The note with it: skin tissues of back and ear; applied on skin; p<0.01 or p<0.001; FIG. 4. Here is the method: as §1, with “H&E (hematoxylin and eosin)” for “toluidine blue (TB)”, “a change in inflammatory cell infiltration” for “number of mast cells”

Structures are written as SMILES.

Regarding `C[C@]12C=CC(=O)C=C1CC[C@@H]1[C@@H]2[C@@H](O)C[C@@]2(C)[C@H]1CC[C@]2(O)C(=O)CO` [prednisolone], in test [1], the “number of scratching (number of itching) over days compared to the control group (Control)” value was “decreased with statistical significance”.
Take `C=CC[C@@H]1/C=C(\C)C[C@H](C)C[C@H](OC)[C@H]2O[C@@](O)(C(=O)C(=O)N3CCCC[C@H]3C(=O)O[C@H](/C(C)=C/[C@@H]3CC[C@@H](O)[C@H](OC)C3)[C@H](C)[C@@H](O)CC1=O)[C@H](C)C[C@@H]2OC` [tacrolimus]: in test [2], the “mast cells compared to the control group (Control)” value is recorded as “decreased with statistical significance”. Further, the “number of scratching (number of itching) compared to the control group (Control)” value in test [3] is on record as “decreased with statistical significance”. Further, the “inflammatory cells compared to the control group (Control)” value in test [4] is on record as “decreased with statistical significance”.
